# Measurements taken from patent publication US20170202818A1, “METHODS AND COMPOSITIONS TO MODIFY GSK-3 ACTIVITY” (Ohio University, priority 2014, published 2017).
# Read-outs that look alike come from different tables or passages of the source.
# Tests used:
# [1] = test system: RAW 264.7 murine macrophages; test: western blotting of β-catenin and GSK-3 in RAW 264.7 macrophages; type: cell-based; conditions: for expression of β-catenin protein: RAW 264.7, 0.5-25 μM, 5 hours; for expression of GSK-3: RAW 264.7, higher concentrations, e.g., 10 μM and 25 μM
# Experimental: (§1) To test the ability of COB-187 and COB-152 to increase β-catenin levels, RAW 264.7 macrophages and PMA differentiated THP-1 cells were treated with COB-152 or COB 187 at different concentrations or 0.1% (v/v) DMSO solvent for 5 hours. Following treatment, protein was extracted and probed for β-catenin and total GSK-3 via western blotting.
# (§2) More specifically, RAW 264.7 cells and PMA differentiated THP-1 cells were treated with varying concentrations of COB-187 or COB-152 dissolved in culture media containing 0.1% (v/v) dimethylsulfoxide (i.e., DMSO) solvent or with 0.1% (v/v) DMSO alone for 5 or 24 hours. After incubation, […] protein was extracted from the cells and quantified. More specifically, culture supernatant was collected and store at −80° C. until further use. The cells were lysed in 10 mM Tris HCl at pH 7.5, 150 mM NaCl, and 1% nonyl phenoxypolyethoxylethanol-40, containing a cocktail of protease inhibitors (Roche, Mannheim, Germany). Insoluble material was pelleted and the supernatant containing total protein as well as the culture supernatant was quantified using a Micro BCA protein kit. […] of protein was then resolved onto a denaturing gel, transferred to a nitrocellulose membrane, and immunoblotted with antibodies against GSK-3 and β-catenin. Signals were detected using the Li-Cor Odyssey Infrared Imaging System (Lincoln, Nebr.). Membranes were stripped and reprobed with primary antibody for β-actin as a loading control. All experiments were performed at least thrice in both RAW 264.7 and PMA differentiated THP-1 cells, and in duplicates.
# [2] = test system: PMA differentiated THP-1 human macrophages stimulated with Aβ(1-42) peptides; test: Aβ(1-42)-induced inflammatory cytokines in human macrophages (RT-PCR, ELISA); type: cell-based; conditions: Aβ(1-42) 10 μM, 5 hours; for concentration at which IL-1β protein production was decreased: ELISA; for IFN-β mRNA expression / IL-1α mRNA expression: dose-dependent
# Experimental: (§3) THP-1 cells were differentiated using PMA (50 ng/mL) as previously described and stimulated with either LPS (10 ng/mL) or […] human Aβ(1-42) peptides alone, or in combination with COB-152, COB-187 or 0.1% DMSO solvent for 5 hours. Following incubation, the supernatant was collected and stored at −80° C. until assayed for IL-6, TNF-α, and IL-1β protein by ELISA, whereas RNA extracted from the cells was reverse transcribed and subjected to quantitative RT-PCR for quantification of IL-6, TNF-α, IL-1α, IL-1, and IFN-β mRNA. All experiments were performed at least thrice and in duplicates.
# (§4) RNA extracted from differentiated THP-1 cells treated as previously described was reverse transcribed to cDNA and subjected to quantitative RT-PCR. Relative IL-6, TNF-α, IL-1α, IL-1, and IFN-β gene expression was determined by normalizing with Hprt1 using the comparative Ct method. Commercially available cytokine ELISA kits (BD Biosciences, Burlington, N.C.) were used to quantify the levels of secreted IL-6, TNF-α, and IL-1 protein in the supernatant obtained from differentiated THP-1 cells treated with either LPS (10 ng/mL) or 10 μM human Aβ(1-42) peptides alone, or in combination with COB-152, COB-187 or 0.1% DMSO solvent. The ELISA was performed according to the manufacturer's protocol. The supernatant was diluted with the assay diluent at different ratios as shown in the TABLE 4 below for IL-6, TNF-α, and IL-1β. All samples were tested in duplicates and the results were expressed as Mean±SD of the cytokine concentration (pg/mL). All results presented were corrected for dilution factor.
# non-GSK-3 kinases = test: kinase screen, non-GSK-3 kinases; conditions: COB-152 at 2 μM; COB-187 at 1 μM; FIG. 3
# GSK-3β = GSK-3β (Homo sapiens, UniProt P49841); test: fluorescence-based molecular assay of GSK-3β activity; conditions: 60 minutes at room temperature, Ser/Thr substrate and ATP
# Source text: (§5) Subsequently, the solution was developed and the fluorescence was read to infer the activity of the protein.
# [3] = test system: PMA differentiated THP-1 human macrophages stimulated with LPS; test: LPS-induced inflammatory cytokines in human macrophages (RT-PCR, ELISA); type: cell-based; conditions: LPS 10 ng/mL, 5 hours
# Experimental: as §3, §4
# GSK-3α = GSK-3α (Homo sapiens, UniProt P49840); test: fluorescence-based molecular assay of GSK-3α activity; conditions: 60 minutes at room temperature, Ser/Thr substrate and ATP
# Source text: as §5
# [4] = test system: RAW 264.7 murine macrophages; test: quantitative RT-PCR of β-catenin mRNA in RAW 264.7 cells; type: cell-based; conditions: RAW 264.7, 4, 20 or 40 μM, 5 hours
# Experimental: RAW 264.7 cells were treated with varying concentrations of COB-187, COB-152 or 0.1% (v/v) DMSO solvent alone for 5 or 24 hours. Following treatment, RNA was extracted from the cells and reverse transcribed. More specifically, total RNA was isolated using RNeasy plus mini kit according to the manufacturer's protocol and quantified using a Nanodrop 2000C Spectrophotometer. First-strand cDNA was synthesized from total RNA using cDNA Reverse Transcription Kit according to the manufacturer's protocol. Quantitative RT-PCR was performed using Taqman Gene Expression Assay (Life Technologies, Waltham, Mass.) and mouse primers for GAPDH and β-catenin. Relative gene expression was determined by normalizing with GAPDH using the comparative Ct method. All experiments were performed at least thrice in duplicates.
# [5] = test system: PMA differentiated THP-1 cells; test: western blotting of β-catenin and GSK-3 in PMA differentiated THP-1 cells; type: cell-based, human; conditions: for expression of β-catenin protein: PMA differentiated THP-1, 0.5-25 μM, 5 hours; for expression of GSK-3: PMA differentiated THP-1, higher concentrations, e.g., 10 μM and 25 μM
# Experimental: RAW 264.7 cells were cultured in RPMI 1640 medium supplemented with 10% FBS and 0.5% penicillin-streptomycin stabilized solution. THP-1 cells were cultured and differentiated into macrophages using phorbol 12-myristate 13-acetate (i.e., PMA). More specifically, THP-1 cells were cultured in RPMI-1640 10% FBS supplemented with 0.05 mM 2-mercaptoethanol. For differentiation to a macrophage phenotype, THP-1 cells were stimulated with PMA (50 ng/mL) for 24 hours. Differentiated THP-1 cells were washed with fresh media twice before incubation for 24 more hours at 37° C., 5% CO2 in a humidified incubator. The monolayer was then treated with ox-LDL or native LDL (both at either 50 or 100 μg/mL) and LPS (10 ng/mL) for 4 hours. Undifferentiated THP-1 cells were cultured and treated under similar conditions were used as a control.
# as §1, §2
# GSK-3α and GSK-3β = test: kinase screen, GSK-3; conditions: COB-152 at 2 μM; COB-187 at 1 μM; FIG. 3
# [6] = test system: LPS induced RAW macrophages; test: LPS-induced IL-6 mRNA in RAW 264.7 macrophages; type: cell-based; conditions: LPS stimulated murine macrophages, 0.1, 1 or 10 μM
# Experimental: RAW 264.7 were stimulated with either LPS (10 ng/mL) alone, or in combination with COB-152, COB-187 or 0.1% DMSO solvent for 5 hours. Following incubation, RNA was extracted from the cells. Quantitative RT-PCR was used to quantify expression of mRNA.
# [7] = Alzheimer's disease, Phase IIb; cited from earlier work
# [8] = cited from earlier work
# Chain of GSK-3β (P49841 whole entry, species assumed): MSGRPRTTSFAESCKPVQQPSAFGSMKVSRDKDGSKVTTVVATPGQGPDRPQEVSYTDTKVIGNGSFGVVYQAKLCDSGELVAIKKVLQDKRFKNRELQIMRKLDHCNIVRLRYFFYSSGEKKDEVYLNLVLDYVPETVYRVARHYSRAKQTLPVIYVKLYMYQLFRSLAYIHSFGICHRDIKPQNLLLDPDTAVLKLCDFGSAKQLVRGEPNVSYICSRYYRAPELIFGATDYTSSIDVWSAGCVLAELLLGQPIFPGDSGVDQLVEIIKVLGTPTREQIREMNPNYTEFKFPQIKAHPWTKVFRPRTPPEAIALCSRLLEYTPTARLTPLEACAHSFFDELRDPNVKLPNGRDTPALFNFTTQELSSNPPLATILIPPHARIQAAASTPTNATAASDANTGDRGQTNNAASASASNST
# Chain of GSK-3α (P49840 whole entry, species assumed): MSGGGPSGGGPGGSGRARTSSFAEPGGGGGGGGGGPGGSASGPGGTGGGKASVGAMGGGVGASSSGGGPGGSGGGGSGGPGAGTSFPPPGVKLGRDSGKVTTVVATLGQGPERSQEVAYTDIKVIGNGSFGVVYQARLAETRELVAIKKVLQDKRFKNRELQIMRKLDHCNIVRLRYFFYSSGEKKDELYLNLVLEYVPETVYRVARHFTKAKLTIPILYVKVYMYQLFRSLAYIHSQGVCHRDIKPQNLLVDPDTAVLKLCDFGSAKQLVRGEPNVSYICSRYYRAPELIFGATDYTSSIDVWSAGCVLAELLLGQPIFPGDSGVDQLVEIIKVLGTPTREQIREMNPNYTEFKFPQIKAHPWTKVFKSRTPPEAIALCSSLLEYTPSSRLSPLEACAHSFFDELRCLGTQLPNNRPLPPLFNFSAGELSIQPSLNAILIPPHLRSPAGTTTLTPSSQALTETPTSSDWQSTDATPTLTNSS
Compound,expression of β-catenin protein [1],expression of GSK-3 [1],IL-6 production (mRNA and protein) [2],TNF-α production (mRNA and protein) [2],concentration at which IL-1β protein production was decreased [2] [µM],IFN-β mRNA expression [2],IL-1α mRNA expression [2],"effect on non-GSK-3 kinases, such as the cyclin dependent protein kinases (non-GSK-3 kinases)",IL-1α mRNA expression [3],IL-6 production (mRNA and protein) [3],TNF-α production (mRNA and protein) [3],expression of β-catenin mRNA [4],expression of β-catenin protein [5],expression of GSK-3 [5],further results
OC1(c2ccccc2)CSC(=S)N1Cc1ccncc1 (stereo not shown) [COB-187],increased in a dose-dependent manner,may also be affected,dose-dependent decrease,dose-dependent decrease,≥ 10,inhibited,inhibited,little effect,inhibited,dose-dependent decrease,dose-dependent decrease,did not alter,increased expression,may also be affected,"IC50, inhibition of GSK-3β activity (GSK-3β): nanomolar range; IL-1β protein production ([3]; ELISA): dose-dependent decrease; IC50, inhibition of GSK-3α activity (GSK-3α): nanomolar range; activity of GSK-3α/β in kinase screen (GSK-3α and GSK-3β): inhibit"
OC1(c2ccccc2)CSC(=S)N1Cc1cccnc1 (stereo not shown) [COB-152],increased in a dose-dependent manner,may also be affected,dose-dependent decrease,dose-dependent decrease,≥ 25,inhibited,inhibited,little effect,inhibited,dose-dependent decrease,dose-dependent decrease,did not alter,increased expression,may also be affected,concentration at which IL-1β protein production was decreased ([3]; ELISA): ≥ 50 µM; IL-6 mRNA production [6]: dose dependently inhibited
O=c1sn(-c2cccc3ccccc23)c(=O)n1Cc1ccccc1 [tideglusib],,,,,,,,,,,,,,,"primary endpoint [7]: primary endpoint was not achieved; progression of global cerebral atrophy compared to placebo ([8]; analysis of a sub-set of patients): reduced progression of global cerebral atrophy; primary endpoint ([8]; progressive supranuclear palsy, phase II): did not meet is primary endpoint"
